These results are taken from article PMC12843137, “Fine-Tuning Side Chain Substitutions: Impacts on the Lipophilicity–Solubility–Permeability Interplay in Macrocyclic Peptides” (Marine Drugs, 2025).

For experiment [1], the system named is BxPC3 cells. In words: CCK-8 antiproliferative assay, BxPC3. Format: cell-based. The conditions noted are these: Homo sapiens, BXPC-3, 72 h, CCK-8, 72 h, mean ± SEM (n = 3); read-out: Cell proliferation IC50 BxPC3. On the procedure:
(§1) The inhibitory activities against human pancreatic cancer PANC-1 cells of the synthesized compounds were evaluated by CCK-8 assay.
(§2) Human pancreatic cancer cell lines PANC-1, PATU8988T and BxPC3 were purchased from the Cancer Institute & Hospital of the Chinese Academy of Medical Sciences (Shanghai, China). All three cell lines were cultured in RPMI-DMEM medium containing 10% fetal bovine serum, cultured at a constant temperature of 37 °C in a humidified incubator with 5% CO2.
(§3) Pancreatic cancer cells are seeded into 96-well plates. After a proliferation time of 16 h, different concentrations of compounds are added into the corresponding wells and incubated for 72 h. 10 μL of CCK-8 solution is added into each well and incubated for 1–4 h at 37 °C. Shake the plates and read the OD value of each well at 450 nm on a microplate reader.
(§4) 1. Characterization of biological activity
(§5) Supplementary Figure S1. Cell viability is assessed using the CCK -8 assay following 72 h treatment with the tested compounds in pancreatic cancer cell lines: a) PATU8988T, b) BxPC3.
(§6) Supplementary Table S1. The effects of compounds against two pancreatic cancer cell lines were evaluated using […]
(§7) Cell proliferation IC 50(µM)a
(§8) [a] IC50 va lues of the tested compounds ar e determined in PATU8988T an d BxPC3 cells. […]
(§9) Supplementary Figure S2. Convergence of the PMF calculated from WTM -eABF simulation . […]

The test system of experiment [2] is PATU8988T cells. Kind of experiment: CCK-8 antiproliferative assay, PATU8988T. Format: cell-based. The conditions noted are these: Homo sapiens, PaTu 8988t; CCK-8, 72 h, mean ± SEM (n = 3); read-out: Cell proliferation IC50 PATU8988T. The method, then: as §1, §2, §3, §4, §5, §6, §7, §8, §9
Experiment [3] concerns the target T1, recombinant human eEF1A1 (Homo sapiens, UniProt P68104).
T1 construct: purchased TMPH-01283
T1 sequence (P68104 1-462): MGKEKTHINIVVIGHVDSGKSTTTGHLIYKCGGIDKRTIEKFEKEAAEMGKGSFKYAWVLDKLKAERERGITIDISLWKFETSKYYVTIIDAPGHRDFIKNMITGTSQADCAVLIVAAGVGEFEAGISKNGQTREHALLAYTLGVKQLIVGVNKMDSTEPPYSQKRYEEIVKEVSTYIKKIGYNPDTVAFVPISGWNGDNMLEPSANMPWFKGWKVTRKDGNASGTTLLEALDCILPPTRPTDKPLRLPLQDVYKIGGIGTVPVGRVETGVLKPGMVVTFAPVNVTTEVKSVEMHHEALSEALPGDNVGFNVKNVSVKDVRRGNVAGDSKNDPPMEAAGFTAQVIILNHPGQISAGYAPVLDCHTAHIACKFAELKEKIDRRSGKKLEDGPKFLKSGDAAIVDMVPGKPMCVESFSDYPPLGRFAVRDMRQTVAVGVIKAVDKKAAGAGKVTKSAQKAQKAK
Kind of experiment: MicroScale Thermophoresis (MST) binding assay. The conditions noted are these: for Kd: MST, 50 mM HEPES pH 7.4, 0.05% Tween-20, triplicate, mean ± SD. An excerpt:
To investigate whether the loss of cellular activity in the BE derivatives results from diminished binding to the known intracellular target eEF1A1, we assessed direct target engagement using MST. Recombinant human eEF1A1 protein was titrated against the compounds, which were supplied in HEPES buffer (pH 7.4) and diluted as required. Binding interactions were quantified by monitoring changes in thermophoretic mobility. Detailed materials and protein labeling procedures are provided in the Supporting Information.
Compounds were serially diluted (16-point, 2-fold) in assay buffer (50 mM HEPES, pH 7.4, 0.05% Tween-20) as ligands. Labeled eEF1A1 protein (target) was mixed 1:1 with each dilution and incubated at room temperature for 20 min. Samples were loaded into premium capillaries and analyzed on the Monolith X instrument following the manufacturer’s protocol, with infrared laser excitation at 1480 nm to generate a temperature gradient. Thermophoretic mobility was monitored via fluorescence changes before, during, and after laser activation.
Data were analyzed using NanoTemper Analysis software (version 2.3) to fit binding curves and determine dissociation constants (Kd). Experiments were performed in triplicate, and Kd values are reported as mean ± standard deviation.
The Lucifer Yellow fluorescence (to monitor monolayer integrity) signal is measured in a fluorescence plate reader at 485 nm excitation and 530 nm emission.
The leakage of Lucifer Yellow, in unit of percentage (%), can be calculated using the following equation:
%LY leakage = 100×[LY]acceptor/([LY]donor+[LY]acceptor)
Where [LY]acceptor is the fluorescence intensity in the acceptor well (0.3 mL), and [LY]donor is the fluorescence intensity in the donor well (0.1 mL) and expressed as % leakage. The percentage of Lucifer yellow leakage […]
should be less than 1.0%. […]
monolayers will be compared. […]
those in the replicate transwells (CV<30%), the monolayer's Papp data will be considered valid and […]
Supplementary Table S3. The assessment of caco-2 cell monolayer integrity. […]

Experiment [4] relates to PANC-1 cells. The conditions noted are these: CCK-8; cited from earlier work.

Like-named read-outs stand apart in the source and are kept apart here. Bounds are passed on as bounds.

With `CCCCOc1ccc(-c2ccc(-c3ccc(Cn4cc(CCCCC[C@H]5OC(=O)CN(C)C(=O)/C=C/[C@@H](CN6CCN(C)CC6)NC(=O)CNC(=O)[C@@](C)(O)C(=O)[C@H]5C)nn4)cc3)cc2)cc1` [Compound 29], the IC50 in experiment [1] and in experiment [2] was over 50 µM in each case. Also, in experiment [3] (read-out: Kd), the Kd was 7.82 ± 0.63 µM. The “fold weaker affinity than the parent BE” value in experiment [3] (ratio of MST Kd values) is listed as “approximately 3.4 fold”.
For the molecule `CC1C(=O)C(C)(O)C(=O)NCC(=O)NC(CN2CCN(C)CC2)C=CC(=O)N(C)CC(=O)OC1CCCCc1cn(CCCCCCCCNC(=N)N)nn1` (centres unmarked) [Compound 31], the values for the IC50 in experiment [1] and in experiment [2] were over 100 µM and over 50 µM, respectively. The Kd result in experiment [3] is recorded as “no detectable binding”.
With `CCCCCCCCCCCCCC1OC(=O)CN(C)C(=O)C=CC(CN2CCN(C)CC2)NC(=O)CNC(=O)C(C)(O)C(=O)C1C` (centres unmarked) [BE-NMP], the IC50 in experiment [4] is 0.65 ± 0.19 µM.
